The values below come from patent US7041812B2, “Labeled nucleoside polyphosphates” (Amersham Biosciences Corp, priority 2001, dated 2006).

SMILES strings stand for the structures.

Test [1] concerns the target T1, MMLV reverse transcriptase (Moloney murine leukemia virus, UniProt P03355).
T1 construct: MMLV reverse transcriptase
Kind of test: Rates of incorporation of dTPn-DDAO (n=3 or 4) by reverse transcriptase. In kind it is biochemical. The note with it: 1 μM nucleotide, 100 nM primer annealed to template, shrimp alkaline phosphatase, 23° C., FIG. 2. Here is the method: (§1) Reactions were assembled at room temperature (23° C.) using the deoxynucleotides of Example (1–5). Reactions contained primer template combinations having a single oligonucleotide primer (represented by SEQ ID NO: 1) annealed to an oligonucleotide template corresponding to SEQ ID NO: 2.
(§2) Reaction conditions: A 70 μl reaction containing 50 mM Tris, pH 8.0, 5% glycerol, 5 mM MgCl2, 0.01% tween-20, 0.25 units shrimp alkaline phosphatase, 100 nM primer annealed to template, and 1 μM ddTPn-DDAO was assembled in a quartz fluorescence ultra-microcuvet in a LS-55 Luminescence Spectrometer (Perkin Elmer), operated in time drive mode. Excitation and emission wavelengths are 620 nm and 655 nm respectively. Slit widths were […] for excitation slits, 15 nm for emission slits. The reaction was initiated by the addition of 0.35 μl (11 units) of a cloned DNA polymerase I (genetically engineered to eliminate 3′-5′ exonuclease activity, 5′-3′ exonuclease activity and discrimination against dideoxynucleotides) or MMLV reverse transcriptase, and 0.25 mM MnCl2.

Test [2] concerns cloned DNA polymerase I (genetically engineered to eliminate 3′-5′ exonuclease activity, 5′-3′ exonuclease activity and discrimination against …). Kind of test: Rates of incorporation of dTPn-DDAO (n=3 or 4) by DNA polymerase. In kind it is biochemical. The note with it: 1 μM nucleotide, 100 nM primer annealed to template, shrimp alkaline phosphatase, 23° C., FIG. 2. The method, then: as §1, §2

Take `Cc1cn([C@H]2CC(O)[C@@H](COP(=O)(O)OP(=O)(O)OP(=O)(O)OP(=O)(O)Oc3ccc4c(c3)C(C)(C)C3=C(Cl)C(=O)C(Cl)=CC3=N4)O2)c(=O)[nH]c1=O` (some centres unmarked) [dT4P-DDAO, δ-9H(1,3-dichloro-9,9-dimethylacridin-2-one-7-yl)-deoxythymidine-5′-tetraphosphate]: the rate of incorporation entry in test [1] and in test [2] was “significantly higher than that of dT3P-DDAO” in each case.
